Values after ≈ are worked out from the molar mass of the structure shown. “Also recorded” adds a separate entry of the source.
How the values were obtained:
[1] = system: gram positive and negative organisms; details: cited from earlier work
inhalational anthrax = details: human, in vivo; cited from earlier work
Bacillus anthracis = details: rhesus monkey, in vivo; cited from earlier work
anthrax = experiment: microbe, parasite or virus in culture; format: cell-based; details: Bacillus anthracis, read-out: MIC against anthrax, mid point adopted in the analyses

In the case of `O=C(O)c1cn(C2CC2)c2cc(N3CCNCC3)c(F)cc2c1=O` [ciprofloxacin], the “MIC range of organisms in the literature study” value [1] is listed as 0.008−0.4 μg/mL, the overall survival (inhalational anthrax) is listed as 55% and the “protection from the disease while on therapy” value (Bacillus anthracis) is listed as “sufficient protection; also recorded: adequately protected”. The survival rate (Bacillus anthracis) was 90% and the MIC (anthrax) was 0.07 µg/mL (≈ 0.211 µM).
